Publication PMC12019328, “Discovery of an ApoE4-targeted small-molecule SirT1 enhancer for the treatment of Alzheimer’s disease” (Scientific Reports, 2025)
Several values for one entry are separate records, joined by “and”; a condition that tells them apart may be missing. Equal entries are not always repeated.

Key:
NFYb mRNA in Kelly cells = experiment: NFYb mRNA in Kelly neuroblastoma cells; type: cell-based, human; details: 5 µM, 24 h, vs DMSO
Procedure: Human neuroblastoma ‘Kelly’ cells (genotype APOE3/APOE4) were plated in 96-well plates at 50K cells per well and were grown overnight in RPMI 1640 supplemented with 2 mM Glutamine, 10% FBS and 1% Pen-Strep. Cells were treated with 5 µM DDL-214, -218, or -219; or DMSO vehicle (n = 8 per compound). Twenty-four hours later, medium was removed, cells washed and lysed as described above for N2a-E4 cells.
Total RNA was isolated from cells or brain tissue (Qiagen RNEasy kit). Total RNA (0.5–1.0 µg) mRNA was then converted to cDNA (SuperScript™ III First-Strand Synthesis SuperMix kit; Thermo Fisher), and gene mRNA levels were measured using a gene-specific qRT-PCR Taqman assays (Thermo Fisher). Gene mRNA levels were normalized to GAPDH mRNA levels measured either in the same cDNA sample or in the same qPCR reaction using multiplexing of gene-of-interest/VIC and GAPDH/FAM, normalized by the delta-delta-Ct method.

SirT1 promoter = experiment: ChIP analysis of SirT1 promoter occupancy in Kelly cells; type: cell-based, human; details: vs DMSO
Procedure: Correlations between gene mRNAs in DDL-214, -218, and -219-treated Kelly cells
As described in the main manuscript, human Kelly neuroblastoma cells were treated with
racemate DDL-214, and enantiomers DDL-218 and -219. Levels of PRMT5, NFYb, SirT1, and
PPP2r5e mRNAs were then determined. The correlations between these gene mRNAs for all
Data points are graphed by
treatment in Figure S6D-F and their significant correlation (Pearson correlation 0.914) in
bioinformatic analysis of gene co-expression of 2300 human brain RNAseq samples performed
at Genefriends.org (Raina, et al. (2022) GeneFriends: gene co-expression databases and tools
for humans and model organisms, Nucleic Acids Research, 2022;
Figure S6. Correlation of gene mRNA levels in DDL-treated Kelly cells. All data points are shown for (A)
PRMT5 vs. NFYb, (B) SirT1 vs. PRMT5, and (C) PPP2r5E vs. SirT1. R2 values are shown on the upper
right of each panel. (D-F) The same data with treatment (DDL-214, -218, or -219) indicated by symbols
shown below panel (E). The statistical 'r' value and significance determined by Pearsons Correlation
ChIP assay for SirT1 gene promoter occupancy by ApoE4 and RNA polymerase […]
promoter by ApoE4 or RNA Polymerase (RNAP) was determined using an EZ-ChIP kit (Millipore […]
DNA was purified. The immunoprecipitated DNA was measured for the level of immuno-captured […]

[1] = In vivo pharmacokinetic analysis, brain levels after oral gavage; set-up: species or system C57BL/6J mice; details: single time point one hour, oral gavage 30 mg/Kg, n = 1; 30 mg/kg
Procedure: […] One hour later, mice were euthanized by pentobarbital over-anesthesia and trans-cardial collection of blood for isolation of plasma by centrifugation at 10,000 x g for 10 min at 4 °C. Brain tissue was collected for analysis, frozen on dry ice and stored at -80 °C before analysis.
For LC/MS/MS analysis, tissue samples were homogenized in a bead beater using 5 volumes of ice-cold 80% acetonitrile (1/5; mg of tissue/ µL of 80% ACN). Solutions were clarified by centrifugation (16,000 x g, 5 min) and the supernatants were transferred to new tubes and lyophilized. Samples were reconstituted in 100 µL of 50/50/0.1 (water/acetonitrile/formic acid) before analysis via liquid chromatography-tandem mass spectrometry.
A 6460 triple quadrupole mass spectrometer (Agilent Technologies) coupled to a 1290 Infinity HPLC system (Agilent Technologies) with a Phenomenex analytical column (Kinetex 1.7 μm C18 100 Å 100 × 2.1 mm) was used for HPLC. The HPLC method utilized a mixture of solvent A (99.9/1 water/formic acid) and solvent B (99.9/1 acetonitrile/formic acid) and a gradient was used for the elution of the compounds (min/%B: 0/20, 3/20, 19/99, 20/99, 21/20, 30/20).
An internal standard (IS; Reserpine) was added to every sample to account for compound loss during sample processing. Standards were made in drug naïve brain and plasma with increasing amounts of DDL-214- (S1,S2: 0.1 pmol/ S3,S4: 1 pmol/ S5,S6: 10 pmol/ S7,S8: 100 pmol/ S9,S10: 1000 pmol). The standard curve was made by plotting the amount of each compound per standard vs. the ratio of measured chromatographic peak areas corresponding to DDL-214 (DDL-214 -/Reserpine). The trendline equation was then used to calculate the absolute concentrations of DDL-214/-218/-219 in brain tissue and plasma.

## CC(N)C(=O)OC(C)(C)Cc1ccncc1 (stereo not shown) [DDL-218]
NFYb mRNA in Kelly cells
  NFYb mRNA: significantly increases NFYb mRNA
SirT1 promoter
  ApoE4 binding to SirT1 promoter: lower, but the effect was not significant
  RNAP occupancy of SirT1 promoter: increased
[1]
  brain levels: ~ 8400 ng/g and 37.8 µM
